Test results from patent publication US12595591B2, “Peptide libraries having enhanced subsequence diversity and methods for use thereof” (ROCHE […], INC., priority 2019, dated 2026).
No end group written: not given here.

Key:
biotin-labeled DsbA [1] = biological target: T1, biotin-labeled DsbA (Escherichia coli, UniProt P0AEG4); assay: Peptide microarray binding of biotin-labeled DsbA, Cy5-streptavidin fluorescence detection; settings: fluorescent signal intensity measured by peptide microarray
T1 construct: purchased abcam
T1 sequence (P0AEG4 20-208): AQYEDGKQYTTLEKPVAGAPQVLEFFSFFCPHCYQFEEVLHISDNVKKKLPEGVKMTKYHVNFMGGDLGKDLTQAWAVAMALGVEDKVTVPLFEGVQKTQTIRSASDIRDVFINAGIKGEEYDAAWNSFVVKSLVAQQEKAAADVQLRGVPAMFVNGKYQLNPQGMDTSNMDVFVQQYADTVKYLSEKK
Excerpt: Briefly, the peptide array was synthesized by light-directed array synthesis in a Roche NimbleGen Maskless Array Synthesizer (MAS) using an amino-functionalized substrate as previously reported (Forsström, et al., “Proteome-wide Epitope Mapping of Antibodies Using Ultra-dense Peptide Arrays,” Molecular & Cellular Proteomics 13:1585-1597 (2014) and Lyamichev, et al., “Stepwise Evolution Improves Identification of Diverse Peptides Binding to a Protein Target,” Nature Scientific Reports 7:12116 (2017), both of which are incorporated herein by reference in their entireties). L-amino acids were synthesized by Orgentis Chemicals GmbH. Custom amino acids were purchased from Lifetein. Cy5™-streptavidin was purchased from GE Healthcare, Blocker™ BSA (10%) in PBS from ThermoFisher, and SecureSeal™ hybridization chambers from Grace Bio-Labs. Final side chain deprotection was performed by incubating the microarray in 60 mM EDT and 25 mM TIPS in 95% TFA (v/v) for 30 min at room temperature. The microarray was then washed twice in methanol for 30 seconds, once in 1×TBST for 1 min, twice in TBS for 30 seconds, and then spun dry in a microcentrifuge equipped with an array holder. […] Here, 2.6 μL biotin-labeled DsbA (1.5 mg/mL, abcam) was incubated on the array in 49 μL binding buffer containing 100 mM HEPES (pH 7.3), 1% BSA, 250 mM NaCl, 20 mM L-glutathione-reduced, and 0.2 mM L-glutathione-oxidized in a hybridization chamber overnight at 4° C. After incubation, arrays were washed in water for 15 seconds placed directly into a streptavidin-Cy5 detection bath. Positive binding to DsbA was determined by the detection of Streptavidin-Cy5. Streptavidin-Cy5 binding to all arrays was performed with 20 μL streptavidin-Cy5 (1 μg/mL) in 30 mL binding buffer containing 10 mM Tris-HCl (pH 7.4), 1% Casein, 0.05% Tween-20 in a 30 mL pap jar for 1 hour at room temperature. After incubation, arrays were washed in 20 mM Tris-HCl (pH 7.8), 0.2 M NaCl, 1% SDS for 30 seconds followed by a 30 seconds wash in water. The arrays were then dried by spinning in a microcentrifuge equipped with an array holder. Data was analyzed by measuring Cy5 fluorescence intensity of the arrays and extracting data, as previously described in Lyamichev, et al. (2017).
To narrow the number of possible 15-mer peptides in both libraries down to approximately 3 million peptides, a calculation was run to select for the maximum diversity of 6mer peptide sequences. Each 15-mer sequence was replicated two times.

biotin-labeled DsbA [2] = biological target: T1, biotin-labeled DsbA; assay: Biacore kinetic analysis of peptide binding to immobilized biotin-labeled DsbA
Description: The discovered and incrementally optimized novel DsbA-binding peptides were subject to kinetic characterization. Kinetic analysis of the interaction between the discovered peptides and DsbA was performed using a Biacore XI00. Biotin-labeled DsbA (1 uM) was immobilized on streptavidin coated chip (GE Healthcare) to a target level of 1,000 response units in HBS-P+. […] Fourteen dilutions of peptide from 5000 nM to 0.6 nM in HBS-P+ were flowed over the DsbA coated chip in triplicate with a contact time of 120 seconds and a dissociation time of 600 seconds. […] All peptides were amidated on the C-terminus.

DFWHGDTCKVTQFDQ-NH2
SIGNAL INTENSITY (biotin-labeled DsbA [1]): 1750
koff (biotin-labeled DsbA [2]): 0.0271 s⁻¹
kon (biotin-labeled DsbA [2]): 130000 M⁻¹ s⁻¹

DFWHGEQCKVTQFDQ-NH2
SIGNAL INTENSITY (biotin-labeled DsbA [1]): 4590
koff (biotin-labeled DsbA [2]): 0.0139 s⁻¹
kon (biotin-labeled DsbA [2]): 259000 M⁻¹ s⁻¹

DFWHGETCKVTQFDQ-NH2
SIGNAL INTENSITY (biotin-labeled DsbA [1]): 1801
koff (biotin-labeled DsbA [2]): 0.0185 s⁻¹
kon (biotin-labeled DsbA [2]): 220000 M⁻¹ s⁻¹

HNWAAQCLKDQAKL-NH2
SIGNAL INTENSITY (biotin-labeled DsbA [1]): 1759
koff (biotin-labeled DsbA [2]): 0.0448 s⁻¹
kon (biotin-labeled DsbA [2]): 509000 M⁻¹ s⁻¹

HNWAAQCLNPDQAKL-NH2
SIGNAL INTENSITY (biotin-labeled DsbA [1]): 2640
koff (biotin-labeled DsbA [2]): 0.0292 s⁻¹
kon (biotin-labeled DsbA [2]): 510000 M⁻¹ s⁻¹

NDYQYKGQQCLDPKY-NH2
SIGNAL INTENSITY (biotin-labeled DsbA [1]): 3623
koff (biotin-labeled DsbA [2]): 0.0246 s⁻¹
kon (biotin-labeled DsbA [2]): 515000 M⁻¹ s⁻¹

PSPWATCDF-NH2
SIGNAL INTENSITY (biotin-labeled DsbA [1]): 82

SIIGMCYKKDPS-NH2
SIGNAL INTENSITY (biotin-labeled DsbA [1]): 1365

VIGQCLKN-NH2
SIGNAL INTENSITY (biotin-labeled DsbA [1]): 588

VILGQCLKQ-NH2
SIGNAL INTENSITY (biotin-labeled DsbA [1]): 965

VIVGQCLKK-NH2
SIGNAL INTENSITY (biotin-labeled DsbA [1]): 282

WQYENWAITKWQCVK-NH2
SIGNAL INTENSITY (biotin-labeled DsbA [1]): 1427

YVYGMCWKDYTDTDK-NH2
SIGNAL INTENSITY (biotin-labeled DsbA [1]): 2114
koff (biotin-labeled DsbA [2]): 0.0627 s⁻¹
kon (biotin-labeled DsbA [2]): 538000 M⁻¹ s⁻¹

YVYGMCWKDYTTDK-NH2
SIGNAL INTENSITY (biotin-labeled DsbA [1]): 2297
koff (biotin-labeled DsbA [2]): 0.057 s⁻¹
kon (biotin-labeled DsbA [2]): 728000 M⁻¹ s⁻¹
